From paper PMC10644263 (Biochemistry, 2020)
Several values for one entry are separate records, joined by “and”; a condition that tells them apart may be missing. Equal values may be shown once.

Tests used:
[1] = biological target: T1, HpMTAN (Helicobacter pylori, UniProt Q9ZMY2); assay: Inhibition of HpMTAN; format: biochemical; conditions: 37 °C
T1 sequence (Q9ZMY2 1-230): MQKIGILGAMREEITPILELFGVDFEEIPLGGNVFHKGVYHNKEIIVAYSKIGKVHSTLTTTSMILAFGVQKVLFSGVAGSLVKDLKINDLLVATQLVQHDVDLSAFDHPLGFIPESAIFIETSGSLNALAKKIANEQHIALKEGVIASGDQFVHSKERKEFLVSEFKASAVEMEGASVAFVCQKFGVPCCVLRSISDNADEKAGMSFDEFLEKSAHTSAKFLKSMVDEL

[2] = biological target: T2, SaMTAN (Staphylococcus aureus, UniProt Q5HFG2); assay: Inhibition of SaMTAN; format: biochemical; conditions: 37 °C, compared with MTDIA
T2 sequence (Q5HFG2 1-228): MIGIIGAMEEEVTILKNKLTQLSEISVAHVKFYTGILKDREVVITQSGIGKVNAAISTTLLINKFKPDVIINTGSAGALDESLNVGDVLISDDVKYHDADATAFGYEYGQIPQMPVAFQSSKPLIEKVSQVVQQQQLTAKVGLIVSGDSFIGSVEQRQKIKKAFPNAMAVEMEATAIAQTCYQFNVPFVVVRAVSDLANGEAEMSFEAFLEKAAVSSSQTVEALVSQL

SMILES | Ki ([1]; read-out: Ki (dissociation constant) for HpMTAN) | improvement of Ki/affinity relative to MTDIA for HpMTAN ([1]; compared with MTDIA) | improvement of Ki relative to MTDIA for SaMTAN [2]
CSC[C@H]1CN(Cc2c[nH]c3c(N)ncnc23)C[C@@H]1O [MTDIA, Methylthio-DADMe-Immucillin-A] | 1 nM and 1.25 nM | – | –
Nc1ncnc2c(CN3C[C@H](CSCCOCCO)[C@@H](O)C3)c[nH]c12 [Compound 2] | – | 14 fold | 81 fold
